Results reported in US7795385B2, “Use of bombesin/gastrin-releasing peptide antagonists for the treatment of inflammatory conditions, acute lung injury and bipolar disorder” (Bexar Global, Inc., priority 2004, dated 2010).

Key:
[1] = tested on: amphetamine (AMPH)-induced hyperactivity in rats; assay: Amphetamine-induced hyperactivity test (open field, model of mania); format: in vivo, male Wistar rats; conditions: RC-3095 0.1, 1.0 or 10.0 mg/kg i.p.
Experimental: Animals. A total of 120 male Wistar rats (age, 2.5-3 months; weight, 220-340 g) from an inhouse breeding colony were used. They were housed in plastic cages, 5 to a cage, with water and food freely available, under a 12-h light/dark cycle (lights on at 7:00 h). All experimental procedures were performed in accordance with the NIH Guide for the Care and Use of Laboratory Animals and the Brazilian Society for Neuroscience and Behavior (SBNeC) recommendations for animal care.
Drugs and pharmacological procedures. d-amphetamine (AMPH, 2.0 mg/kg) and RC-3095 (a gift from Dr. J. Engel, Zentaris GmbH, Germany) were dissolved in saline (SAL, 0.9% NaCl). All solutions were prepared immediately prior to administration. Animals were given a 10 ml/kg intraperitoneal (i.p.) injection of SAL or RC-3095 (0.1, 1.0 or 10.0 mg/kg) followed by an i.p. injection of SAL or AMPH […] 30 min later. Thus, the resulting experimental groups were: SAL/SAL; SAL/AMPH, RC-3095 0.1 mg/kg/AMPH, RC-3095 1.0 mg/kg/AMPH, RC-3095 10.0 mg/kg/AMPH, RC 3095 0.1 mg/kg/SAL; RC-3095 1.0 mg/kg/SAL; and RC-3095 10.0 mg/kg/SAL.
Hyperactivity test. […] Crossings of the black lines and rearings performed were counted. […]
Statistical analysis. All data are presented as mean±S.E.M. Differences among experimental groups were determined by ANOVA. […]

[2] = tested on: patient with rheumatoid arthritis; assay: Administration to a patient with rheumatoid arthritis; format: in vivo, human; conditions: 6 mg RC-3095 twice daily s.c.
Experimental: The composition consists of a white lyophilised cake in a 4 ml injection vial. One injection vial will be reconstituted with 2 ml water for injection.
A patient with rheumatoid arthritis, started on March 22 with 6 mg of RC-3095, twice daily. Application subcutaneously.
At baseline visit the patient presented with joint pain grade 3, joint inflammation grade 2 and depression grade 2.
Before start with RC-3095 they were already taken methotrexate, subcutaneously, once a week, and corticosteroids.
They were followed every two weeks by physical examination and laboratorial exams.

SMILES: CC(C)C[C@@H](CN[C@@H](CC(C)C)C(N)=O)NC(=O)[C@H](Cc1c[nH]cn1)NC(=O)CNC(=O)[C@@H](NC(=O)[C@H](C)NC(=O)[C@H](Cc1c[nH]c2ccccc12)NC(=O)[C@H](CCC(N)=O)NC(=O)[C@H]1Cc2c([nH]c3ccccc23)CN1)C(C)C [RC-3095, H-D-Tpi-Gln-Trp-Ala-Val-Gly-His-Leu-psi-Leu-NH2]
- other behavioral measures (sedation) [1]: did not alter
- adverse events [2]: only local (nodes and pruritus)
